Test results as given in patent US4160829A, “Antibacterial 1,2,4-oxadiazolylacetamido cephalosporins” (Gist-Brocades N.V., priority 1972, dated 1979).
Converted amounts (≈) assume the structure as drawn. Like-named read-outs stand apart in the source and are kept apart here.

Assays:
Staph.aureus A 2001 [1] = experiment: agar serial dilution test; type: cell-based, Staphylococcus aureus; conditions: Staphylococcus aureus, A2001, 24 h, agar serial dilution, 24 hours, 37° C.; read-out: minimal inhibitory concentration (MIC)
Pseud.aerug. H 10 = experiment: agar serial dilution test; type: cell-based; conditions: agar serial dilution, 24 hours, 37° C.; read-out: minimal inhibitory concentration (MIC)
Staph.aureus A 2001 [2] = experiment: micro serial dilution test; type: cell-based, Staphylococcus aureus; conditions: Staphylococcus aureus, A2001, 18 h, micro serial dilution (in brackets), about 18 hours, 30° C. or 37° C.; read-out: minimal inhibitory concentration (MIC)
Strep. faec. L 80 = experiment: agar serial dilution test; type: cell-based, Streptococcus faecalis; conditions: Enterococcus faecalis; agar serial dilution, 24 hours, 37° C.; read-out: minimal inhibitory concentration (MIC)
Staph.aureus A 2000 [3] = experiment: agar serial dilution test; type: cell-based, Staphylococcus aureus; conditions: Staphylococcus aureus, A2000, 24 h, agar serial dilution, 24 hours, 37° C.; read-out: minimal inhibitory concentration (MIC)
Pseud.aerug. 2396 = experiment: agar serial dilution test; type: cell-based; conditions: agar serial dilution, 24 hours, 37° C.; read-out: minimal inhibitory concentration (MIC)
Prot.mirab. A 1200 = experiment: agar serial dilution test; type: cell-based, Proteus mirabilis; conditions: agar serial dilution, 24 hours, 37° C.; for MIC: Proteus mirabilis, 24 h, read-out: minimal inhibitory concentration (MIC)
Staph.aureus A 321 = experiment: agar serial dilution test; type: cell-based, Staphylococcus aureus; conditions: Staphylococcus aureus, A321, 24 h, agar serial dilution, 24 hours, 37° C.; read-out: minimal inhibitory concentration (MIC)
Dipl.pneum. L 54 = experiment: agar serial dilution test; type: cell-based, Diplococcus pneumoniae; conditions: Streptococcus pneumoniae; agar serial dilution, 24 hours, 37° C.; read-out: minimal inhibitory concentration (MIC)
Staph.aureus A 2000 [4] = experiment: micro serial dilution test; type: cell-based, Staphylococcus aureus; conditions: Staphylococcus aureus, A2000, 18 h, micro serial dilution (in brackets), about 18 hours, 30° C. or 37° C.; read-out: minimal inhibitory concentration (MIC)
Prot.mirab. L 93 = experiment: agar serial dilution test; type: cell-based, Proteus mirabilis; conditions: Proteus mirabilis
Prot.morg. 2241 = experiment: agar serial dilution test; type: cell-based; conditions: 24 h, agar serial dilution, 24 hours, 37° C.; read-out: minimal inhibitory concentration (MIC)
Salm.dubl. P 43 = experiment: agar serial dilution test; type: cell-based, Salmonella dublin; conditions: Salmonella enterica, read-out: minimal inhibitory concentration (MIC)
Prot.rettg. A 821 = experiment: agar serial dilution test; type: cell-based, Proteus rettgeri; conditions: Providencia rettgeri, 24 h, agar serial dilution, 24 hours, 37° C.; read-out: minimal inhibitory concentration (MIC)
Past.multo. A 723 = experiment: agar serial dilution test; type: cell-based, Pasteurella multocida; conditions: Pasteurella multocida; agar serial dilution, 24 hours, 37° C.; read-out: minimal inhibitory concentration (MIC)
Staph.aureus A 355 [5] = experiment: micro serial dilution test; type: cell-based, Staphylococcus aureus; conditions: Staphylococcus aureus, A355; micro serial dilution (in brackets), about 18 hours, 30° C. or 37° C.; penicillinase-producing strain; read-out: minimal inhibitory concentration (MIC)
Text: Two drops of a stock solution of the test compound (antibiotic) in a known concentration were brought into the first hole of a test plate with 9 numbered holes with a sterile Pasteur pipette. After rinsing this pipette three times with a physiological NaCl-solution, two drops of a stock solution of the test organism in a culture medium were brought in all the holes except for hole 8. In the first hole, the solution of the tested compound had been half diluted, then by stirring the liquid in the first hole and adding two drops of this mixture to the second hole and so on until hole 8, dilutions of the test compound solution were obtained in geometrical progression. The hole 9 contained no antibiotic and served for checking the growth of the testogranism in a blank medium. The test plate was incubated at 30° C. or 37° C. for about 18 hours.
^1 Penicillinase-producing strain

Staph.aureus A 355 [6] = experiment: agar serial dilution test; conditions: Staphylococcus aureus, A355, 24 h, read-out: minimal inhibitory concentration (MIC), agar serial dilution, 24 hours, 37° C.; penicillinase-producing strain
Kleb.pneum. A 809 = experiment: agar serial dilution test; type: cell-based, Klebsiella pneumoniae; conditions: Klebsiella pneumoniae; agar serial dilution, 24 hours, 37° C.; read-out: minimal inhibitory concentration (MIC)
Prot.mirab. H 3 = experiment: agar serial dilution test; type: cell-based, Proteus mirabilis; conditions: Proteus mirabilis; agar serial dilution, 24 hours, 37° C.; read-out: minimal inhibitory concentration (MIC)
Haem.infl. A 1030 = experiment: micro serial dilution test; type: cell-based; conditions: micro serial dilution (in brackets), about 18 hours, 30° C. or 37° C.; for MIC: 18 h, read-out: minimal inhibitory concentration (MIC)
Esch.coli U 20 = experiment: agar serial dilution test; type: cell-based, Escherichia coli; conditions: Escherichia coli
Bac.Subt.ATCC 6633 = experiment: agar serial dilution test; type: cell-based, Bacillus subtilis; conditions: agar serial dilution, 24 hours, 37° C.; for MIC: Bacillus subtilis, ATCC6633, 24 h, read-out: minimal inhibitory concentration (MIC)
[7] = tested on: Pseud.aerug. Wyeth A 1058; experiment: agar serial dilution test; type: cell-based; conditions: agar serial dilution, 24 hours, 37° C.; read-out: minimal inhibitory concentration (MIC)
Salm.typh. R 127 = experiment: agar serial dilution test; type: cell-based; conditions: 37° C.; for MIC: 24 h, read-out: minimal inhibitory concentration (MIC)
Shig.equir. T 3 = experiment: agar serial dilution test; type: cell-based; conditions: 24 h, 37° C., read-out: minimal inhibitory concentration (MIC)
Strep.haem. A 266 = experiment: agar serial dilution test; type: cell-based, Streptococcus haemolyticus; conditions: Streptococcus; agar serial dilution, 24 hours, 37° C.; read-out: minimal inhibitory concentration (MIC)
[8] = agar serial dilution, 24 hours, 37° C.
[9] = agar serial dilution, 24 hours, 37° C., read-out: minimal inhibitory concentration (MIC)
[10] = U20, agar serial dilution, 24 hours, 37° C., read-out: minimal inhibitory concentration (MIC)

Row | SMILES | MIC (Staph.aureus A 2001 [1]) | MIC (Pseud.aerug. H 10) | MIC (Staph.aureus A 2001 [2]) | MIC (Strep. faec. L 80) | MIC (Staph.aureus A 2000 [3]) | MIC (Pseud.aerug. 2396) | MIC (Staph.aureus A 321) | MIC (Dipl.pneum. L 54) | MIC (Staph.aureus A 2000 [4]) | MIC (Prot.morg. 2241) | MIC (Salm.dubl. P 43; [8]) | MIC (Prot.rettg. A 821) | MIC (Past.multo. A 723) | MIC (Staph.aureus A 355 [5]) | MIC (Staph.aureus A 355 [6]) | MIC (Kleb.pneum. A 809) | MIC (Prot.mirab. H 3) | MIC [7] | MIC (Shig.equir. T 3) | MIC (Prot.mirab. A 1200) | other results
1 | CC(=O)OCC1=C(C(=O)O)N2C(=O)[C@@H](NC(=O)Cc3nc(C)no3)[C@H]2SC1 [Compound D, sodium-7-[(3-methyl-1,2,4-oxadiazol-5-yl)-acetamido]-3-acetoxymethyl-3-cephem-4-carboxylate] | 0.75 µg/mL | > 100 µg/mL | 0.6 µg/mL | 50 µg/mL | 0.75 µg/mL | > 100 µg/mL | 0.5 µg/mL | 0.75 µg/mL | 1 µg/mL | > 100 µg/mL | 3 µg/mL | 1.5 µg/mL | 1.5 µg/mL | 0.6 µg/mL | 0.5 µg/mL | 3 µg/mL | 25 µg/mL | > 100 µg/mL | 6 µg/mL | – | minimal inhibitory concentration (MIC) (Prot.mirab. A 1200): 25 µg/mL; MIC (Prot.mirab. L 93; 24 h, read-out: minimal inhibitory concentration (MIC), agar serial dilution, 24 hours, 37° C.): 12.5 µg/mL; minimal inhibitory concentration (MIC) (Haem.infl. A 1030): 30 µg/mL; MIC (Esch.coli U 20; U20, 24 h, read-out: minimal inhibitory concentration (MIC), agar serial dilution, 24 hours, 37° C.): 12.5 µg/mL; minimal inhibitory concentration (MIC) (Bac.Subt.ATCC 6633): 0.12 µg/mL; minimal inhibitory concentration (MIC) (Salm.typh. R 127; 24 hours): 12.5 µg/mL
2 | Cc1noc(CC(=O)N[C@@H]2C(=O)N3[C@@H]2SC(C)(C)[C@@H]3C(=O)O)n1 [Example 11B, sodium 6-[(3-methyl-1,2,4-oxadiazol-5-yl)-acetamido]-penicillanate H2 O] | 3 µg/mL | > 100 µg/mL | 2.5 µg/mL | 6 µg/mL | 50 µg/mL | > 100 µg/mL | 0.12 µg/mL | 0.25 µg/mL | > 12 µg/mL | > 100 µg/mL | – | 50 µg/mL | 1 µg/mL | > 12 µg/mL | 50 µg/mL | > 100 µg/mL | 50 µg/mL | > 100 µg/mL | 3 µg/mL | > 100 µg/mL | MIC (Prot.mirab. L 93; [9]): 3 µg/mL; MIC (Salm.dubl. P 43; 24 h): 12.5 µg/mL; MIC (Haem.infl. A 1030): 125 µg/mL; MIC (Esch.coli U 20; [10]): 50 µg/mL; MIC (Bac.Subt.ATCC 6633): 0.03 µg/mL; MIC (Salm.typh. R 127): 12.5 µg/mL; MIC (Strep.haem. A 266): 0.03 µg/mL
3 | COC(=O)C(C(=O)N[C@@H]1C(=O)N2C(C(=O)O)=C(COC(C)=O)CS[C@H]12)c1nc(C)no1 (stereo partly drawn) [Example 38, 7-[3-methyl-α-carbomethoxy-1,2,4-oxadiazol-5-yl-acetamido]cephalosporanic acid] | 25 µg/mL (≈ 55 µM) | > 100 µg/mL | 15 µg/mL (≈ 33 µM) | > 100 µg/mL | 25 µg/mL (≈ 55 µM) | > 100 µg/mL | 25 µg/mL (≈ 55 µM) | 12.5 µg/mL (≈ 27.5 µM) | 23 µg/mL (≈ 50.6 µM) | > 100 µg/mL | 100 µg/mL (≈ 220 µM) | 25 µg/mL (≈ 55 µM) | 12.5 µg/mL (≈ 27.5 µM) | 23 µg/mL (≈ 50.6 µM) | 25 µg/mL (≈ 55 µM) | 50 µg/mL (≈ 110 µM) | 100 µg/mL (≈ 220 µM) | > 100 µg/mL | 50 µg/mL (≈ 110 µM) | > 100 µg/mL | MIC (Prot.mirab. L 93; [9]): 50 µg/mL (≈ 110 µM); MIC (Haem.infl. A 1030): 125 µg/mL (≈ 275 µM); MIC (Esch.coli U 20; [10]): > 100 µg/mL; MIC (Bac.Subt.ATCC 6633): 6 µg/mL (≈ 13.2 µM); MIC (Salm.typh. R 127): 100 µg/mL (≈ 220 µM)
